Reference: article PMC5048394, “Development and substrate specificity screening of an in vivo biosensor for the detection of biomass derived aromatic chemical building blocks” (Chemical Communications (Cambridge, England), 2016)

Tested on: PLC biosensor
Test: microbe, parasite or virus in culture
Type: cell-based, E. coli BL21
Settings: for EC10: BL21; for Emax: BL21, read-out: Induction; for maximal fold induction: BL21, read-out: Signal range (max/min), substrate screening, PLC biosensor, E. coli BL21; for EC50 / EC90 / Induction / Sensing range (predicted) / Change in potency relative to sinapic acid (4) / Activity against the FerC biosensor: PLC biosensor; for EC50 / EC90 / Change in potency relative to sinapic acid (4) / Activity against the FerC biosensor: E. coli BL21; for Induction: E. coli BL21, 0.32–1000 μM; for Sensing range (predicted): E. coli BL21, text; for Output signal / efficacy: relative to the PLC biosensor response curve with ferulic acid
Description: Cells were centrifuged, washed and re-suspended with PBS buffer. The expression output was then analyzed by monitoring the fluorescence normalised to cell density (RFU/OD600) in a multimode plate reader (Methods, ESI ^†).
The sequences containing the PLC, PPC and PferB promoters, a RBS, and a Hexa-Histidine tag, flanked by SphI/NdeI were synthetized (GeneART, ThermoFisher). The sequences were enzyme restricted with SphI/NdeI and cloned in pET44eGFP,2 upstream to the eGFP gene, replacing the T7 promoter region generating respectively, the pET44PLCeGFP, pET44PPCeGFP and pET44PferBeGFP vectors.
The FerCA DNA sequence containing the ferA and ferC genes, individually flanked by a PLacI promoter and an rrn_B1 terminator, was synthetized by GeneARTTM (ThermoFisher).
The construct was cloned in a p15 plasmid flanked by NaeI/KasI restriction sites generating […]
the p15FerCA vector. […]
Biosensors Performance and Screening Methods
Reporter controls and the biosensor systems PLC, PPC and PferB were respectively generated by transformation of pET44PLCeGFP, pET44PPCeGFP and pET44PFerBeGFP vectors alone or with p15FerCA in BL21 and DH10B chemically competent E. coli cells. A single colony of each system was grown in LB media supplemented with antibiotics at 37 °C with shaking at 180rpm for 16 hours. Cultures were diluted (1:100) in fresh LB media with appropriate antibiotics, re-incubated at 37 °C with shaking until OD ~0.6 and transferred (450 μL) to multi- […]
μM and 1000 μM. Induction plates were incubated at 37 °C, with shaking at 1000 RPM (Stuart microtitre plate shaker incubator) for 3 hours. Cells were harvested by centrifugation, washed twice and re-suspended with PBS buffer. Expression output was analyzed by monitoring the fluorescence normalised to cell density (RFU/OD) in a multimode plate reader. […]
Compounds for screening were selected using cinnamic acid as a reference structure. The 58 selected compounds were tested with the PLC biosensor in E. coli BL21 cells. The substrate screening assays were performed using concentrations ranging from 0.32 μM to 1000 μM, as described for Ferulic acid. […]
Data Processing and Curve Fitting
Biosensor signal output (eGFP expression) was measured as Relative Fluorescence Units (RFU) and normalised to cell density (OD600). The background auto-fluorescence of E. coli was subtracted from RFU/OD and was normalised (%) to the pLC biosensor response curve to ferulic acid for each experiment. The normalised data was plotted and fitted with a dose-response curve using the Levenberg Marquardt logistic growth/sigmoidal algorithm, using the Origin 2015 (OriginLab, Northampton MA USA) program. The biomass screening data was […]

[1] = Escherichia coli, BL21, substrate screening

Row | SMILES | EC10 (Escherichia coli) [µM] | Emax (Escherichia coli) [%] | maximal fold induction (Escherichia coli) | EC50 [1] [µM] | EC90 [1] [µM] | Induction (substrate screening) | EC50 (substrate screening) [µM] | Sensing range (predicted) (substrate screening) [fold] | Change in potency relative to sinapic acid (4) (substrate screening) [fold] | Output signal / efficacy (substrate screening) [%] | Activity against the FerC biosensor (substrate screening)
1 | O=C(O)C=Cc1ccc(O)cc1 [compound 2, p-Coumaric acid] | 3.9 | > 70 | 25 | 26.1 ± 3.8 | 174 | H (high output signals, and hence good efficacy (>70%)) |  |  |  |  | 
2 | Nc1ccc(C=CC(=O)O)cc1 [compound 3, 3-(4-Aminophenyl)-2-propenoic acid] | 12 | > 70 | 28.1 | 110 ± 25.7 | 1010 | H (high output signals, and hence good efficacy (>70%)) |  |  |  |  | 
3 | COc1cc(/C=C/C(=O)O)cc(OC)c1O [compound 4, Sinapic acid] | 19.8 | > 70 | 15.4 | > 200 | 4990 | H (high output signals, and hence good efficacy (>70%)) | 314 ± 55.8 | 225 |  |  | 
4 | COc1ccc(C=CC(=O)O)cc1O [compound 5, 3-Hydroxy-4-methoxycinnamic acid] | 36.3 | > 70 | 33.5 | > 200 | 1510 | H (high output signals, and hence good efficacy (>70%)) | 234 ± 15.4 |  |  |  | 
5 | COc1cc(C=CC(=O)O)cc(O)c1O [compound 6, 3,4-Dihydroxy-5-methoxycinnamic acid] | 33.9 | 40 to 60 | 14.8 | 746 ± 118 | 16400 | M (moderate signal (60–40%)) |  | 485 | 2.5 |  | 
6 | O=C(O)C=Cc1ccc(O)cc1O [compound 7, 2,4-Dihydroxycinnamic acid] | 131 | 40 to 60 | 9.6 | 823 ± 45.6 | 5170 | M (moderate signal (60–40%)) |  |  |  |  | 
7 | COc1ccc(C=CC(=O)O)cc1OC [compound 8, 3,4-Dimethoxycinnamic acid] | 228 | 40 to 60 | 11.4 | 825 ± 13.2 | 2990 | M (moderate signal (60–40%)) |  |  |  |  | 
8 | O=C(O)/C=C/c1ccc(O)c(O)c1 [compound 9, Caffeic acid] | 222 | 40 to 60 | 11.2 | 1180 ± 88.5 | 6250 | M (moderate signal (60–40%)) |  |  |  |  | 
9 | O=C(O)C=Cc1ccc([N+](=O)[O-])cc1 [compound 10, 4-Nitrocinnamic acid] | 158 | 40 to 60 | 9.5 | 1560 ± 96.8 | 15500 | M (moderate signal (60–40%)) |  |  |  |  | 
10 | COc1cc(C=CC(=O)O)cc(OC)c1OC [compound 11, 3,4,5-Trimethoxycinnamic acid] | 378 | < 40 | 6.7 | > 2000 | 14800 | L (low signals (<40%)) | 2360 ± 265 |  | 8 | < 40 | 
11 | COc1cc(CCC(=O)O)ccc1O [compound 12, 3-(4-Hydroxy-3-methoxyphenyl)propionic acid] | 702 | < 40 | 3.3 |  | 31300 | L (low signals (<40%)) |  |  |  | < 40 | low activity
12 | COc1cccc(C=CC(=O)O)c1 [compound 13, 3-Methoxycinnamic acid] | 816 | < 40 | 4.8 |  |  | L (low signals (<40%)) |  |  |  | < 40 | 
13 | O=C(O)/C=C/c1ccccc1 [compound 14, cinnamic acid] |  |  |  |  |  |  |  |  |  |  | no activity
14 | Cc1ccc(C=CC(=O)O)cc1 [compound 29, 4-methylcinnamic acid] |  |  |  |  |  |  |  |  |  |  | devoid of activity
